Measurements from US20260325685A1, “Radiopharmaceutical Compositions Targeting Carbonic Anhydrase IX and Uses Thereof” (RayzeBio, Inc., priority 2023, published 2026).
Read-outs that look alike come from different tables or passages of the source.

Experiments:
[1] = molecular target: T1, human CA-IX (Homo sapiens, UniProt Q16790); assay: Surface Plasmon Resonance (SPR) binding kinetics to recombinant human CA-IX (Biacore 8K, single-cycle kinetics, 1:1 binding model)
T1 construct: purchased Acro CA9-H82E3
Description: (§1) G1. Surface Plasmon Resonance Assay Conditions for hCA-IX and hCA-XII
(§2) Surface Plasmon Resonance (SPR) experiments were conducted on a Biacore 8K instrument (Cytiva, Marlborough, MA) to determine the binding kinetics of the compound to recombinant human CA-IX (Acro, CA9-H82E3) and CA-XII (Creative BioMart, CA12-261H) proteins. The ligands were diluted to 10 μg/mL in PBS-P+ buffer (20 mM phosphate buffer, pH 7.4, with 2.7 mM KCl, 137 mM NaCl, and 0.05% Tween 20) and captured on Series S Streptavidin Sensor Chips (Cytiva, 29699621) to 1200-1800 response units (RU) using a flow rate of 5 μL/min and injection times of 180 seconds for human CA-IX and 75 seconds for human CA-XII. Analyte binding was evaluated using a single-cycle kinetics method over 9 analyte concentrations (100-0.39 nM) in PBS-P+ buffer with 1% DMSO using a 50 μL/min. flow rate, 120 second association time, and 1200 second dissociation time. The flow cell temperature was set to 25° C. Analyte binding curves were fit to a 1:1 binding kinetic model in Biacore Insight Evaluation software (version 4.0.8.20368) following reference flow cell subtraction and DMSO correction to derive the association and dissociation binding constants.

[2] = molecular target: T2, human CA-XII (Homo sapiens, UniProt O43570); assay: Surface Plasmon Resonance (SPR) binding kinetics to recombinant human CA-XII (Biacore 8K, single-cycle kinetics, 1:1 binding model)
T2 construct: purchased Creative BioMart CA12-261H
T2 sequence (O43570 25-354): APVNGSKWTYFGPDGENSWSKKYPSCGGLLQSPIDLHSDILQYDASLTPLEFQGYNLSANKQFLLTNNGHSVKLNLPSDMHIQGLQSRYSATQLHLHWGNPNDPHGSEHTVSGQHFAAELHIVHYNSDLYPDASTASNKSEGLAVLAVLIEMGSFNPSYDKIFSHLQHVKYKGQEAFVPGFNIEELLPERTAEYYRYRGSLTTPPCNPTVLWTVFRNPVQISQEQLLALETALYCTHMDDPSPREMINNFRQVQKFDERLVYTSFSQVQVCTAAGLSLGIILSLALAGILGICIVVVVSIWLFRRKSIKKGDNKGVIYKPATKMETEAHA
Description: as §1, §2

[3] = Chelated Metal: Lu-175; SPR, 25° C., pH 7.4; read-out: CAIX KD
[4] = Chelated Metal: Lu-175, 25° C., pH 7.4, read-out: CAXII KD
[5] = read-out: CAIX KD; Chelated Metal: Lu-175; SPR, 25° C., pH 7.4
[6] = read-out: CAXII KD, Chelated Metal: Lu-175, 25° C., pH 7.4

| Structure (SMILES) | Kd [1, 3] | Kd [2, 4] | other results |
| --- | --- | --- | --- |
| CC(CCCC(=O)N1CCC(C(N)=O)(C(=O)NCC(=O)NC2(C(=O)NCCn3cc(C45CC(C(=O)Nc6nnc(S(N)(=O)=O)s6)(C4)C5)nn3)CCN(C(=O)CC[C@H](C(=O)O)N3CCN(CC(=O)O)CCN(CC(=O)O)CCN(CC(=O)O)CC3)CC2)CC1)(c1ccc(O)cc1)c1ccc(O)cc1.[Lu+3] [Compound 127.4] | < 1 nM | > 10 nM |  |
| CC(CCCC(=O)N1CCC(C(N)=O)(C(=O)NCC(=O)NC2(C(=O)NCCn3cc(C45CC(C(=O)Nc6nnc(S(N)(=O)=O)s6)(C4)C5)nn3)CCN(C(=O)CCOCCOCCOCCOCCOCCOCCOCCOCCNC(=O)CN3CCN(CC(=O)O)CCN(CC(=O)O)CCN(CC(=O)O)CC3)CC2)CC1)(c1ccc(O)cc1)c1ccc(O)cc1.[Lu+3] [Compound 129.5] | < 1 nM | > 10 nM |  |
| CC(CCC(=O)N1CCC(C(=O)O)(C(=O)NCC(=O)N2CCN(C(=O)CN3CCN(CC(=O)O)CCN(CC(=O)O)CCN(CC(=O)O)CC3)C[C@@H]2C(=O)NCCn2cc(C34CC(C(=O)Nc5nnc(S(N)(=O)=O)s5)(C3)C4)nn2)CC1)(c1ccc(O)cc1)c1ccc(O)cc1.[Lu+3] [Compound 107.4] | 1 to 2.5 nM | > 10 nM |  |
| CC(CCC(=O)N[C@@H](CC(=O)N[C@@H](CC(=O)N1CCN(C(=O)CN2CCN(CC(=O)O)CCN(CC(=O)O)CCN(CC(=O)O)CC2)C[C@@H]1C(=O)NCCn1cc(C23CC(C(=O)Nc4nnc(S(N)(=O)=O)s4)(C2)C3)nn1)C(=O)O)C(=O)O)(c1ccc(O)cc1)c1ccc(O)cc1.[Lu+3] [Compound 107.3] | 1 to 2.5 nM | > 10 nM |  |
| CC(CCCC(=O)N1CCC(C(=O)O)(C(=O)NCC(=O)N[C@@H](CCCCn2cc(C34CCC(C(=O)Nc5nnc(S(N)(=O)=O)s5)(CC3)CC4)nn2)C(=O)NCCOCCOCCNC(=O)CN2CCN(CC(=O)O)CCN(CC(=O)O)CCN(CC(=O)O)CC2)CC1)(c1ccc(O)cc1)c1ccc(O)cc1.[Lu+3] [Compound 102.5] | < 1 nM | 2.5 to 10 nM |  |
| CC(CC(=O)N1CCC(C(=O)O)(C(=O)NCC(=O)N[C@@H](CCCCn2cc(CCCC(=O)Nc3nnc(S(N)(=O)=O)s3)nn2)C(=O)NCCOCCOCCNC(=O)CN2CCN(CC(=O)O)CCN(CC(=O)O)CCN(CC(=O)O)CC2)CC1)(c1ccc(O)cc1)c1ccc(O)cc1.[Lu+3] [Compound 102.4] | < 1 nM | 2.5 to 10 nM |  |
| C[C@H](Nc1c(F)c(S(N)(=O)=O)c(F)c(F)c1S(=O)(=O)CCOCc1cn(CCNC(=O)[C@H]2CN(C(=O)CN3CCN(CC(=O)O)CCN(CC(=O)O)CCN(CC(=O)O)CC3)CCN2C(=O)C[C@H](NC(=O)[C@@H]2COCCN2C(=O)CCCc2ccc(O)cc2)C(=O)O)nn1)C1CCCC1.[Lu+3] [Compound 107.42] | < 1 nM | 2.5 to 10 nM |  |
| CC(CCCC(=O)N1CCC(C(N)=O)(C(=O)NCC(=O)NC2(C(=O)NCCn3nnc(C45CC(C(=O)Nc6nnc(S(N)(=O)=O)s6)(C4)C5)c3C(=O)O)CCN(C(=O)CN3CCN(CC(=O)O)CCN(CC(=O)O)CCN(CC(=O)O)CC3)CC2)CC1)(c1ccc(O)cc1)c1ccc(O)cc1.[Lu+3] [Compound 135] |  |  | Kd [1, 5]: < 1 nM; Kd [2, 6]: > 10 nM |
| CC(CCC(=O)N[C@@H](CC(=O)N[C@@H](CC(=O)N1CCN(C(=O)CCC(CCC(=O)N2CCN(C(=O)C[C@H](NC(=O)C[C@H](NC(=O)CCC(C)(c3ccc(O)cc3)c3ccc(O)cc3)C(=O)O)C(=O)O)[C@H](C(=O)NCCn3cc(C45CC(C(=O)Nc6nnc(S(N)(=O)=O)s6)(C4)C5)nn3)C2)NC(=O)CN2CCN(CC(=O)O)CCN(CC(=O)O)CCN(CC(=O)O)CC2)C[C@H]1C(=O)NCCn1cc(C23CC(C(=O)Nc4nnc(S(N)(=O)=O)s4)(C2)C3)nn1)C(=O)O)C(=O)O)(c1ccc(O)cc1)c1ccc(O)cc1 (stereo partly drawn) [Compound 131.4] |  |  | Kd ([1]; Chelated Metal: None; SPR, 25° C., pH 7.4; read-out: CAIX KD): < 1 nM; Ratio (CAXII/CAIX) ([1]; KD ratio CAXII/CAIX; Chelated Metal: None): * (1 < * < 5); Kd ([2]; Chelated Metal: None, 25° C., pH 7.4, read-out: CAXII KD): < 1 nM |
| CC(CCCC(=O)N1CCC(C(N)=O)(C(=O)NCC(=O)N2CCN(C(=O)CCOCCOCCNC(=O)CN3CCN(CC(=O)O)CCN(CC(=O)O)CCN(CC(=O)O)CC3)C[C@@H]2C(=O)NCCn2cc(C34CC(C(=O)Nc5nnc(S(N)(=O)=O)s5)(C3)C4)nn2)CC1)(c1ccc(O)cc1)c1ccc(O)cc1.[Lu+3] [Compound 129.2] | < 1 nM | > 10 nM |  |
| CC(CCC(=O)N[C@@H](CC(=O)N[C@@H](CCC(=O)NC1(C(=O)NCCOCCOCCNC(=O)CN2CCN(CC(=O)O)CCN(CC(=O)O)CCN(CC(=O)O)CC2)CCN(C(=O)Cn2cc(CCCC(=O)Nc3nnc(S(N)(=O)=O)s3)nn2)CC1)C(=O)O)C(=O)O)(c1ccc(O)cc1)c1ccc(O)cc1.[Lu+3] [Compound 103.2] | 1 to 2.5 nM | 2.5 to 10 nM |  |
| NS(=O)(=O)c1nnc(NC(=O)C23CC(c4cn(CCNC(=O)[C@@H]5CN(C(=O)CN6CCN(CC(=O)O)CCN(CC(=O)O)CCN(CC(=O)O)CC6)CCN5C(=O)C[C@H](NC(=O)C[C@H](NC(=O)c5ccc(C6CC6)cc5)C(=O)O)C(=O)O)nn4)(C2)C3)s1.[Lu+3] [Compound 109.1] | < 1 nM | 2.5 to 10 nM |  |
| CC(C)(CCCC(=O)N1CCC(C(N)=O)(C(=O)NCC(=O)N2CCN(C(=O)CN3CCN(CC(=O)O)CCN(CC(=O)O)CCN(CC(=O)O)CC3)C[C@H]2C(=O)NCCn2cc(C34CC(C(=O)Nc5nnc(S(N)(=O)=O)s5)(C3)C4)nn2)CC1)c1ccc(O)cc1.[Lu+3] [Compound 133] |  |  | Kd [1, 5]: < 1 nM; Kd [2, 6]: > 10 nM |
| CC(CCC(=O)N1CCN(C(=O)CN2CCN(CC(=O)O)CCN(CC(=O)O)CCN(CC(=O)O)CC2)C[C@H]1C(=O)N[C@@H](CC(=O)N1CCOC[C@@H]1Cn1cc(C23CC(C(=O)Nc4nnc(S(N)(=O)=O)s4)(C2)C3)nn1)C(=O)O)(c1ccc(O)cc1)c1ccc(O)cc1.[Lu+3] [Compound 118.2] | 1 to 2.5 nM | > 10 nM |  |
| CC(CCC(=O)N[C@@H](CC(=O)N[C@@H](CC(=O)NC1(CCCCn2cc(CCC(=O)Nc3nnc(S(N)(=O)=O)s3)nn2)CCN(C(=O)OCCOCCNC(=O)CN2CCN(CC(=O)O)CCN(CC(=O)O)CCN(CC(=O)O)CC2)CC1)C(=O)O)C(=O)O)(c1ccc(O)cc1)c1ccc(O)cc1.[Lu+3] [Compound 116.4] | 2.5 to 10 nM | > 10 nM |  |
| NCCNC(=O)c1cnc(N[C@@H](CC(=O)N2CCN(C(=O)CN3CCN(CC(=O)O)CCN(CC(=O)O)CCN(CC(=O)O)CC3)C[C@H]2C(=O)NCCn2cc(C34CC(C(=O)Nc5nnc(S(N)(=O)=O)s5)(C3)C4)nn2)C(=O)O)nc1.[Lu+3] [Compound 111.12] | 2.5 to 10 nM | > 10 nM |  |
| CC(CCCC(=O)N1CCC(C(=O)O)(C(=O)NCC(=O)NC2(C(=O)NCCn3cc(C45CC(C(=O)Nc6nnc(S(N)(=O)=O)s6)(C4)C5)nn3)CCN(C(=O)CN3CCN(CC(=O)O)CCN(CC(=O)O)CCN(CC(=O)O)CC3)CC2)CC1)(c1ccc(O)cc1)c1ccc(O)cc1.[Lu+3] (single isomer, unassigned) [Compound 117.1] | < 1 nM | > 10 nM |  |
| CC(CCCC(=O)N1CCC(C(N)=O)(C(=O)NCC(=O)N2CCN(C(=O)CCOCCOCCOCCOCCOCCOCCOCCOCCNC(=O)CN3CCN(CC(=O)O)CCN(CC(=O)O)CCN(CC(=O)O)CC3)C[C@H]2C(=O)NCCn2cc(C34CC(C(=O)Nc5nnc(S(N)(=O)=O)s5)(C3)C4)nn2)CC1)(c1ccc(O)cc1)c1ccc(O)cc1.[Lu+3] [Compound 129.1] | < 1 nM | > 10 nM |  |
| NS(=O)(=O)c1nnc(NC(=O)C23CC(c4cn(CCNC(=O)[C@H]5CN(C(=O)CN6CCN(CC(=O)O)CCN(CC(=O)O)CCN(CC(=O)O)CC6)CCN5C(=O)[C@@H]5COCCN5C(=O)Cc5n[nH]c6ccccc56)nn4)(C2)C3)s1.[Lu+3] [Compound 107.18] | 2.5 to 10 nM | > 10 nM |  |
| CC(CCCC(=O)N1CCC(C(N)=O)(C(=O)NCC(=O)NC2(C(=O)NCCn3cc(C45CCC(c6cn7nc(S(N)(=O)=O)sc7n6)(CC4)CC5)nn3)CCN(C(=O)CC[C@H](C(=O)O)N3CCN(CC(=O)O)CCN(CC(=O)O)CCN(CC(=O)O)CC3)CC2)CC1)(c1ccc(O)cc1)c1ccc(O)cc1.[Lu+3] [Compound 127.6] | < 1 nM | < 1 nM |  |
| NS(=O)(=O)c1nnc(NC(=O)C23CC(c4cn(CCNC(=O)[C@@H]5CN(C(=O)CN6CCN(CC(=O)O)CCN(CC(=O)O)CCN(CC(=O)O)CC6)CCN5C(=O)CNC(=O)C5(C(=O)O)CCN(C(=O)c6cc(C(F)(F)F)n[nH]6)CC5)nn4)(C2)C3)s1.[Lu+3] [Compound 112.11] | 2.5 to 10 nM | > 10 nM |  |
| CC(CCCC(=O)N1CCC(C(N)=O)(C(=O)NCC(=O)NC2(C(=O)NCCn3cc(COc4ccc5nc(S(N)(=O)=O)sc5c4)nn3)CCN(C(=O)CC[C@H](C(=O)O)N3CCN(CC(=O)O)CCN(CC(=O)O)CCN(CC(=O)O)CC3)CC2)CC1)(c1ccc(O)cc1)c1ccc(O)cc1.[Lu+3] [Compound 127.9] | < 1 nM | > 10 nM |  |
